{"source": "patent US6203776A", "about": "“Method for identifying adrenergic receptor antagonists having good tolerability” (University Technology Corporation, priority 1998, dated 2001)", "key": {"[1]": {"test_system": "human β1 or β2 receptors", "assay": "Inverse agonist activity: inhibition of basal adenylyl cyclase activity (cAMP generation) in Sf9 membranes", "format": "biochemical", "settings": "concentration 10×Ki for the β2 receptor", "procedure": "Sf9 cells were transfected with a baculovirus expression system coding for human β1 or β2 receptors as described in Chidiac et al., Molec.\nAdenylyl cyclase activity of Sf9 membranes was measured as described in Chidiac et al., Molec. […] The inhibition of basal cAMP generation in this system is a measure of inverse agonism."}, "[2]": {"test_system": "β1, β2 and α1 adrenergic receptors", "settings": "Yoshikawa et al., Eur. Heart J. 1996; cited from earlier work"}}, "data": [{"compound": "CC(C)(Cc1c[nH]c2ccccc12)NCC(O)COc1ccccc1C#N", "note": "(centres unmarked) [bucindolol]", "values": [{"measurement": "rank order of inverse agonist activity (FIG. 1B)", "setting": "[1]", "value": "metoprolol>propranolol≥carvedilol>xamoterol>bucindolol"}, {"measurement": "adrenergic receptor subtype selectivity / rank order of potency", "setting": "[2]", "value": "nonselective for β1 and β2 adrenergic receptors"}]}]}
